Data reported in US4604234A, “Protein having cell growth stimulating action, composition thereof and method for producing the same” (priority 1983, dated 1986).
Read-outs that look alike come from different tables or passages of the source.

Key:
[1] = tested on: BHK-21 cells; experiment: Inhibitory effects of steroids on BHK-21 cells; assay type: cell-based, hamster; conditions: for activity at 0.5 µg/mL / activity at 1 µg/mL / activity at 5 µg/mL / activity at 25 µg/mL / activity at 50 µg/mL: Mesocricetus auratus, read-out: % of control cell numbers
[2] = tested on: BHK-21 cells; experiment: Effects of WHS on BHK-21 cells in the presence of steroids; assay type: cell-based, hamster; conditions: steroid 50 μg/ml alone
[3] = tested on: mouse fibroblasts; conditions: with protoplasmic vacuolation; cited from earlier work
[4] = tested on: BHK-21 cells (hamster renal fibroblasts); experiment: Growth of BHK-21 cells, time course; assay type: cell-based
[5] = tested on: epidermal cell; conditions: cited from earlier work

## CC1(C)O[C@@H]2C[C@H]3[C@@H]4C[C@H](F)C5=CC(=O)C=C[C@]5(C)[C@@]4(F)[C@@H](O)C[C@]3(C)[C@]2(C(=O)CO)O1 [Fluocinolone acetanide, fluocinolone acetonide]
[1]; 0.5 μg/ml, 1 day
  cell numbers: 0.15 × 10^5 cells/dish
[1]; 0.5 μg/ml, 3 days
  cell numbers: 1.16 × 10^5 cells/dish
[1]; 0.5 μg/ml, 5 days
  cell numbers: 1.66 × 10^5 cells/dish
[1]; 1.0 μg/ml, 1 day
  cell numbers: 0.15 × 10^5 cells/dish
[1]; 1.0 μg/ml, 3 days
  cell numbers: 1.04 × 10^5 cells/dish
[1]; 1.0 μg/ml, 5 days
  cell numbers: 1.72 × 10^5 cells/dish
[1]; 5.0 μg/ml, 1 day
  cell numbers: 0.15 × 10^5 cells/dish
[1]; 5.0 μg/ml, 3 days
  cell numbers: 1.02 × 10^5 cells/dish
[1]; 5.0 μg/ml, 5 days
  cell numbers: 1.66 × 10^5 cells/dish
[1]; 25.0 μg/ml, 1 day
  cell numbers: 0.15 × 10^5 cells/dish
[1]; 25.0 μg/ml, 3 days
  cell numbers: 0.88 × 10^5 cells/dish
[1]; 25.0 μg/ml, 5 days
  cell numbers: 1.39 × 10^5 cells/dish
[1]; 50.0 μg/ml, 1 day
  cell numbers: 0.12 × 10^5 cells/dish
[1]; 50.0 μg/ml, 3 days
  cell numbers: 0.71 × 10^5 cells/dish
[1]; 50.0 μg/ml, 5 days
  cell numbers: 1.12 × 10^5 cells/dish
[1]; BHK-21, 24 h, 0.5 μg/ml, 1 day
  activity at 0.5 µg/mL: 107%
[1]; BHK-21, 24 h, 1.0 μg/ml, 1 day
  activity at 1 µg/mL: 107%
[1]; BHK-21, 24 h, 5.0 μg/ml, 1 day
  activity at 5 µg/mL: 107%
[1]; BHK-21, 24 h, 25.0 μg/ml, 1 day
  activity at 25 µg/mL: 107%
[1]; BHK-21, 24 h, 50.0 μg/ml, 1 day
  activity at 50 µg/mL: 85.7%
[1]; BHK-21, 72 h, 0.5 μg/ml, 3 days
  activity at 0.5 µg/mL: 86.6%
[1]; BHK-21, 72 h, 1.0 μg/ml, 3 days
  activity at 1 µg/mL: 77.6%
[1]; BHK-21, 72 h, 5.0 μg/ml, 3 days
  activity at 5 µg/mL: 76.1%
[1]; BHK-21, 72 h, 25.0 μg/ml, 3 days
  activity at 25 µg/mL: 65.7%
[1]; BHK-21, 72 h, 50.0 μg/ml, 3 days
  activity at 50 µg/mL: 53%
[1]; BHK-21, 120 h, 0.5 μg/ml, 5 days
  activity at 0.5 µg/mL: 75.8%
[1]; BHK-21, 120 h, 1.0 μg/ml, 5 days
  activity at 1 µg/mL: 78.5%
[1]; BHK-21, 120 h, 5.0 μg/ml, 5 days
  activity at 5 µg/mL: 75.8%
[1]; BHK-21, 120 h, 25.0 μg/ml, 5 days
  activity at 25 µg/mL: 63.5%
[1]; BHK-21, 120 h, 50.0 μg/ml, 5 days
  activity at 50 µg/mL: 51.1%
[2]; 3rd day
  cell numbers: 0.97 × 10^5 cells/dish
[2]; 5th day
  cell numbers: 1.22 × 10^5 cells/dish
[3]
  growth of incubated mouse fibroblasts: inhibited growth

## EGF: epidermal growth factor
[4]
  saturation density of the cells: increased the saturation density of the cells

## PDGF
[4]; Eagle's MEM containing 10% calf serum, 37° C.
  saturation density of the cells: increased the saturation density of the cells

## cholera toxin
[5]
  stimulating activity on epidermal cell growth: marked stimulating activity
